What was measured:
[1] = system: RA patients treated with adalimumab in clinical trials in North America and Europe
Procedure: The rate of TB was calculated for the period before screening was initiated (primarily Phase I trials) and the period after screening was implemented. The screening program consisted of a clinical interview, a tuberculin skin test, and, in most patients, a chest X-ray (CXR). The definition of PPD-positive depended on local country-specific guidelines. For those people who were PPD-positive, or for whom the investigator felt the risk of TB reactivation was high, INH was given for prophylaxis.
The methodology differed among protocols. For instance, in Europe and Australia, it was initially used CXR only, and in later studies, CXR and purified protein derivative skin test (PPD) were both used. By contrast, in US and Canada, CXR and PPD were both used.

[2] = system: MTX-naïve adult patients with early RA (<3 years); assay: Study J: escalation of injectable medicine from eow to weekly dosing; format: in vivo, human
Procedure: Study J was a 2-year, double-blind, active comparator-controlled, Phase III study. […] In patients receiving ADA+MTX or MTX monotherapy, the 7.5 mg MTX weekly dosage increased to 20 mg over 8 weeks, as tolerated and as needed. Monotherapy patients received either placebo pills (adalimumab arm) or placebo injections (MTX arm). Efficacy outcomes measured included ACR response, DAS28 remission, major clinical response, and radiographic change from baseline.
MTX optimization was required before starting weekly injections (to 20 mg weekly, maximum). Once initiated, weekly dosing of injectable medicine was to be maintained until end of study. Criteria for identification of dosage escalators were a sequence of 4 consecutive injections for which the interval for every two consecutive injections was ≦10 days, and/or that the date of escalation, defined as the second of the 4 injections, had to be on or after Week 16 in Year 1. Three dosage escalator categories were defined, based on best ACR response rate achieved any time prior to escalation: Group A=ACR non-responders (never achieved ACR20 prior to dosage escalation), Group B=Partial responders (achieved ACR20 or ACR50 at least once prior to escalation, but never ACR70), and Group C=ACR70 responders (achieved ACR70 at least once prior to escalation). Data are from the intention-to-treat (ITT) population, with missing data analyzed by non-responder imputation (NRI) for clinical measures and by linear imputation for total Sharp scores (TSS).

patients with RA [3] = assay: Study I: HUI3 health utility; format: in vivo, human; conditions: for mean HUI3 change from baseline: week 24 (6 months)
Procedure: Inclusion criteria for this study included: all patients had severe active disease; and all patients had failed prior DMARD(s).
The Health Utilities Index Mark 3 (HUI3) was assessed at three time points. HUI 3 consists of 8 attributes: vision, hearing, speech, ambulation, dexterity, emotion, cognition, and pain. HUI3 score changes of ≧0.03 are considered clinically important. […] As can also be seen in this figure, the Study 2 study population started with baseline values reflecting a patient population with a more severe disease activity than in Study I, as documented by TJC, SJC, HAQ, CRP, and number of previous DMARDs.

patients with RA [4] = assay: Study I (adalimumab 40 mg eow + MTX vs placebo + MTX, 24 weeks): FACIT-F fatigue; format: in vivo, human; conditions: for mean FACIT-F change from baseline: week 24 (6 months)
Procedure: FACIT-F was administered at baseline, at 1 or 2 time points during the study, and at the end of the study. The questionnaire asked each patient the following “Below is a list of statements that other people with your illness have said are important. By circling one (1) number per line, please indicate how true each statement has been for you during the past 7 days.” The questions in the questionnaire used to determine the FACIT score included the following, where each patient indicated the appropriate number (0-4): I feel fatigued; I feel weak all over; I feel listless (“washed out”); I feel tired; I have trouble starting things because I am tired; I have trouble finishing things because I am tired; I have energy; I am able to do my usual activities; I need to sleep during the day; I am too tired to eat; I need help doing my usual activities; I am frustrated by being too tired to do the things I want to do; I have to limit my social activity because I am tired. FACIT-F scores range from 0-52, with higher scores representing less fatigue. FACIT-F changes of ≧4 are considered clinically meaningful.
For Study I, the mean change in baseline for the FACIT-F score at 6 months was 8.1 for ada 40 mg eow+mtx and 2.5 for placebo+mtx (p=0.01). The minimum clinical important difference was determined to be ≧4.0.

[5] = system: patients with moderate to severe RA; assay: Study 1: Health Utilities Index Mark 3 (HUI3); format: in vivo, human; conditions: week 52
Procedure: The HUI3 was assessed at baseline, and at several time points during the study. Health Utility Index 3 (scale=0-1) measures preference of a health state, with “1” denoting perfect health and “0” denoting death. HUI3 changes of ≧0.03 are considered clinically important. The HUI3 classification system consists of 8 attributes and 5 or 6 levels on each attribute, ranging from full function to severe impairment.

[6] = system: patients with long-standing RA who had inadequate responses to MTX; assay: Study 1 (adalimumab + MTX vs placebo + MTX, 12-month RCT plus OLE): radiographic progression (TSS, JE, JSN); format: in vivo, human
Procedure: The study design included a 12 month, double blind, randomized, placebo-controlled trial.
Patients were grouped into three cohorts based on baseline CRP concentrations: low (<1 mg/dL); intermediate (1-4 mg/dL); and high (>4 mg/dL). Analyses were further conducted in two categories of patients according to their change in CRP concentrations at Week 12: those with a ≧20% decrease in CRP from baseline; or those with a <20% decrease in CRP from baseline. The following efficacy and radiographic measures were analyzed at Week 52 in the three baseline CRP categories and in the two Week 12 change in CRP categories: DAS28, ACR 20/50/70, Health assessment questionnaire (HAQ), and Total Sharp score (TSS).
Two readers assessed X-rays performed at baseline (start of RCT), 1 year (end of RCT), and 3 years (post 2 years OLE). Changes from baseline in Total Sharp Score (TSS), Joint Erosions (JE), and Joint Space Narrowing (JSN) were calculated. ACR 20, 50, and 70 response rates, as well as TJC and SJC, were also measured.

## NNC(=O)c1ccncc1 [INH, isoniazid, reference compound]
[1]; 835 patients who received INH
  patients who developed TB after INH prophylaxis: 0.5%
[1]; Study A, 712 high-risk subjects given INH before adalimumab
  subjects who developed TB after INH prophylaxis: 0.6%

## CN(Cc1cnc2nc(N)nc(N)c2n1)c1ccc(C(=O)N[C@@H](CCC(=O)O)C(=O)O)cc1 [MTX Monotherapy]
[2]; 1 year
  Patients who became ACR20 responders after increase to weekly dosing: 4%
  Patients who became ACR50 responders after increase to weekly dosing: 1%
  Patients who reached DAS28 < 2.6 (remission) after increase to weekly dosing: 0%
[2]; 2 years
  Patients who became ACR20 responders after increase to weekly dosing: 4%
  Patients who became ACR50 responders after increase to weekly dosing: 2%
  Patients who reached DAS28 < 2.6 (remission) after increase to weekly dosing: 1%
[2]; ACR70 for ≧6 consecutive months over a 2-year period
  Patients with Major Clinical Response after increase to weekly dosing: 1%

## CN(Cc1cnc2nc(N)nc(N)c2n1)c1ccc(C(=O)N[C@@H](CCC(=O)O)C(=O)O)cc1 [placebo+mtx, methotrexate]
Patients with RA [3]; week 24
  relative HUI3 change from baseline: +10%
Patients with RA [3]
  mean HUI3 change from baseline: 0.04
Patients with RA [3]; listed as Placebo + mtx
  mean HUI3 change from baseline: 0.04
Patients with RA [3]; listed as placebo + MTX
  mean HUI3 change from baseline: +0.04
Patients with RA [4]; week 24
  relative FACIT-F change from baseline: +9%
Patients with RA [4]
  mean FACIT-F change from baseline: 2.5
Patients with RA [4]; listed as placebo + MTX
  mean FACIT-F change from baseline: +2.5
[5]
  mean HUI3 improvement from baseline: +0.07
  relative HUI3 improvement from baseline: +18%
[6]; 12 months (blinded)
  mean change from baseline in Total Sharp Score: 2.8
  mean change from baseline in joint erosion score: 1.7
  mean change from baseline in joint space narrowing score: 1.2
[6]; 36 months (open-label)
  mean change from baseline in joint erosion score: 1.7
  mean change from baseline in joint space narrowing score: 1.3
[6]; 36 months (open-label; all patients on adalimumab 40 mg eow + mtx after month 12)
  mean change from baseline in Total Sharp Score: 3.0
